Tests used:
[1] = system: Arabidopsis thaliana DXPRI; assay: DXPRI enzyme test (heterologously expressed in E. coli, TLC/autoradiography of 14C product); format: biochemical
Description: The transgenic strain was incubated in the growth medium “2×YT” (per 1 l: Bacto-tryptone 16 g, yeast extract 10 g, NaCl 5 g). The cells were grown at 37° C. to an OD560 nm of 0.6. After IPTG (1 MM) had been added, they were cultured for a further 10 minutes at 37° C. and then for a further 4 hours at 22° until they were harvested. The cells were centrifuged off and washed in 1% NaCl. After the cells had been disrupted (50 to 500 ml of cell culture (OD560 nm of 1.0) by means of a French press, a crude protein extract was used for enzyme tests (in 4 ml of extraction buffer (Tris/HCl (pH 7.5) 100 mM, MgCl2 5 mM, DTT 2 mM, PMSF 0.1 mM). For storage, the crude extracts together with 20% of glycerol were frozen at −20° C.
For the enzyme test, 15 μl (diluted to 1 to 7 mg of protein/ml) of protein extract were incubated for 30 minutes at 30° C. with MnCl2 (1 mM), NaF (5 mM), NADPH2 (0.5 mM) and ^14C-1-deoxy-D-xylulose-5-phosphate (0.25 mM, 3 kBq). The reaction was stopped at 100° C. (30 seconds) by adding CaCl2 (to 100 mM) and alkaline phosphatase (0.5 units). The product was dephosphorylated for 2 hours at 30° C. Detection was carried out by subjecting the product to separation by thin-layer chromatography on silica gel 60 (Merck) with acetone/ethyl acetate/water (50+50+2) with subsequent evaluation by Instant Imager. […]

barley seedlings = assay: plant assay: pigment neogenesis in etiolated barley seedlings; format: in vivo; settings: barley seedlings subjected to fosmidomycin treatment, FIG. 8
Excerpt: Since this biosynthetic pathway is a metabolic pathway which is exclusively located in the chloroplasts, it offers optimal target enzymes for the development of inhibitors. Since, according to current knowledge, no enzyme which is identical with, or similar to, Arabidopsis thaliana DXPRI is present in other higher organisms, it can be assumed that inhibitors should have a very specific action on plants. The site of action of an inhibitor, namely fosmidomycin (3-(N-formyl-N-hydroxyamino)propylphosphonic acid; Fujisawa Pharmaceutical Co.) was identified as being a DXPRI. […] The following abbreviations were used in FIG. 7: DOX=1-deoxy-D-xylulose, ME=methylerythritol. The same action is found in a plant assay in which barley seedlings are subjected to fosmidomycin treatment and then examined for their chlorophyll and carotenoid content.
FIG. 8. Effect of fosmidomycin on pigment neogenesis in etiolated barley seedlings.

mevalonate formation = settings: cited from earlier work

Compound: O=CN(O)CCCP(=O)(O)O [fosmidomycin, 3-(N-formyl-N-hydroxyamino)propylphosphonic acid]
- inhibition of the enzymatic activity of DXPRI ([1]; biochemical assay, FIG. 7): efficient inhibition
- formation of ME (methylerythritol) ([1]; fosmidomycin at various concentrations, crude protein extract, 14C-1-deoxy-D-xylulose-5-phosphate substrate): inhibited efficiently
- carotenoid content (barley seedlings): greatly reduced
- chlorophyll content (barley seedlings): greatly reduced

Compound: mevinolin
- sterol biosynthesis in the cytoplasma (mevalonate formation; cytoplasma): inhibition
- prenyl lipid formation in the plastids (mevalonate formation; plastids): remains unaffected

— patent publication US6765129B1, “Overexpression of a DNA sequence coding for a 1-desoxy-d-xylulose-5-phosphate reductoisomerase in plants” (BASF Aktiengesellschaft, priority 1999, dated 2004)
